Measurements reported in ChEMBL document CHEMBL4828766 (J Med Chem, 2021).
Active and inactive are the calls of the source. The calls are words filed in the database; no cut-off is given here. Square brackets hold non-standard residues; d marks the D form. Peptide text beside a SMILES is read from it. Phe(4-I) = N[C@@H](Cc1ccc(I)cc1)C(=O)O; dPhe(4-I) = N[C@H](Cc1ccc(I)cc1)C(=O)O; 2Nal = N[C@@H](Cc1ccc2ccccc2c1)C(=O)O; d2Nal = N[C@H](Cc1ccc2ccccc2c1)C(=O)O

Legend:
[1] = biological target: Melanocortin receptor 3 (Mus musculus) (UniProt P33033); test: Agonist activity at mouse MC3R expressed in HEK293 cells assessed as induction of cAMP level at 100 uM incubated for 2 hr by alphaScreen assay relative to control; type: functional, cell-based
Melanocortin receptor 4 [2] = biological target: T1, Melanocortin receptor 4 (Mus musculus, UniProt P56450); test: Antagonist activity at mouse melanocortin receptor 4 expressed in HEK293 cells assessed as inhibition of NDP-MSH-induced cAMP accumulation incubated for 2 hrs by cAMP Alpha-screen assay based Schild analysis; type: functional, cell-based; settings: for Kb: read-out: pA2 (converted)
[3] = biological target: Melanocyte-stimulating hormone receptor (Mus musculus) (UniProt Q01727); test: Partial agonist activity at mouse MC1R expressed in HEK293 cells assessed as induction of cAMP level at 100 uM incubated for 2 hr by alphaScreen assay relative to control; type: functional, cell-based
Melanocortin receptor 4 [4] = biological target: T1, Melanocortin receptor 4; test: Agonist activity at mouse MC4R expressed in HEK293 cells assessed as induction of cAMP level incubated for 2 hr by alphaScreen assay; type: functional, cell-based
Melanocortin receptor 3 [5] = biological target: T2, Melanocortin receptor 3 (Mus musculus, UniProt P33033); test: (§1) Antagonist activity at mouse melanocortin receptor 3 expressed in HEK293 cells assessed as inhibition of NDP-MSH-induced cAMP accumulation incubated for 2 hrs by cAMP Alpha-screen assay based Schild analysis; type: functional, cell-based; settings: for Kb: read-out: pA2 (converted)
Melanocortin receptor 5 = Melanocortin receptor 5 (Mus musculus, UniProt P41149); test: Agonist activity at mouse MC5R expressed in HEK293 cells assessed as induction of cAMP level at 100 uM incubated for 2 hr by alphaScreen assay; type: functional, cell-based
[6] = biological target: T3, Melanocyte-stimulating hormone receptor (Mus musculus, UniProt Q01727); test: Partial agonist activity at mouse MC1R expressed in HEK293 cells assessed as induction of cAMP level incubated for 2 hr by alphaScreen assay; type: functional, cell-based
[7] = biological target: Melanocortin receptor 3 (Homo sapiens) (UniProt P41968); test: Inhibition of [125 I][Nle 4,D -Phe 7]alpha-MSH binding to human MC3R expressed in African green monkey COS-1 cell membrane by gamma-counter method; type: cell membranes
[8] = biological target: Melanocortin receptor 4 (Homo sapiens) (UniProt P32245); test: Inhibition of [125 I][Nle 4,D -Phe 7]alpha-MSH binding to human MC4R expressed in African green monkey COS-1 cell membrane by gamma-counter method; type: cell membranes
Melanocortin receptor 3 [9] = biological target: T2, Melanocortin receptor 3; test: Agonist activity at mouse MC3R expressed in HEK293 cells assessed as induction of cAMP level incubated for 2 hr by alphaScreen assay; type: functional, cell-based
[10] = biological target: Melanocortin receptor 5 (Mus musculus) (UniProt P41149); test: Agonist activity at mouse MC5R expressed in HEK293 cells assessed as induction of cAMP level at 100 uM incubated for 2 hr by alphaScreen assay relative to control; type: functional, cell-based
[11] = biological target: Melanocyte-stimulating hormone receptor (Mus musculus) (UniProt Q01727); test: Agonist activity at mouse MC1R expressed in HEK293 cells assessed as induction of cAMP level at 100 uM incubated for 2 hr by alphaScreen assay relative to NDP-MSH; type: functional, cell-based; settings: filed as agonist
Melanocortin receptor 4 [12] = biological target: T1, Melanocortin receptor 4; test: (§2) Agonist activity at mouse MC4R expressed in HEK293 cells assessed as induction of cAMP level at 100 uM incubated for 2 hr by alphaScreen assay relative to control; type: functional, cell-based
[13] = biological target: Melanocortin receptor 4 (Mus musculus) (UniProt P56450); test: as §2; type: functional, cell-based
Target sequence in this assay (P56450 whole entry): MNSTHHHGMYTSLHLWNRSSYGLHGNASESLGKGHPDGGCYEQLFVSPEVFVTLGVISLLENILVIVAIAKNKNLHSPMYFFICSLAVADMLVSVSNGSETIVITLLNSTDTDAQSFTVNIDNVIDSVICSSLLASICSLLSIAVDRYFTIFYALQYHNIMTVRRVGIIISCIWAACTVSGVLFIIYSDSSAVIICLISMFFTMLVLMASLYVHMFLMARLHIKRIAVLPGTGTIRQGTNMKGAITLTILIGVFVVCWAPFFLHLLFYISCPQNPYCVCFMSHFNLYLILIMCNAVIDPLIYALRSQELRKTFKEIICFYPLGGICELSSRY

[14] = biological target: Melanocortin receptor 3 (Mus musculus) (UniProt P33033); test: as §1; type: functional, cell-based
[15] = biological target: Melanocortin receptor 4 (Mus musculus) (UniProt P56450); test: Antagonist activity at mouse melanocortin receptor 4 expressed in HEK293 cells assessed as inhibition of NDP-MSH-induced cAMP accumulation incubated for 2 hrs by cAMP Alpha-screen assay based Schild analysis
Target sequence in this assay (P56450 whole entry, looked up): as the sequence (P56450 whole entry) above

[16] = biological target: T3, Melanocyte-stimulating hormone receptor; test: Agonist activity at mouse MC1R expressed in HEK293 cells assessed as induction of cAMP level at 100 uM incubated for 2 hr by alphaScreen assay; type: functional, cell-based

T3 sequence (Q01727 whole entry): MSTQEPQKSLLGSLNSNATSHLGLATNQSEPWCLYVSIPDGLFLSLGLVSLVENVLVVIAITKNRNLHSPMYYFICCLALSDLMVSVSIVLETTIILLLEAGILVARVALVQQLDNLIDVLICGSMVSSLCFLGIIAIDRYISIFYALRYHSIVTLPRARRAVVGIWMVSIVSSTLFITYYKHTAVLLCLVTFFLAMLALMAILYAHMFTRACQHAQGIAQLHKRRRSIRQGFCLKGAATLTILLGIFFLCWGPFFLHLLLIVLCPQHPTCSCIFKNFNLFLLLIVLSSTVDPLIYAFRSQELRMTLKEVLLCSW
Melanocyte-stimulating hormone receptor (Mus musculus), sequence (Q01727 whole entry, looked up): as the sequence (Q01727 whole entry) above
Melanocortin receptor 5, sequence (P41149 whole entry): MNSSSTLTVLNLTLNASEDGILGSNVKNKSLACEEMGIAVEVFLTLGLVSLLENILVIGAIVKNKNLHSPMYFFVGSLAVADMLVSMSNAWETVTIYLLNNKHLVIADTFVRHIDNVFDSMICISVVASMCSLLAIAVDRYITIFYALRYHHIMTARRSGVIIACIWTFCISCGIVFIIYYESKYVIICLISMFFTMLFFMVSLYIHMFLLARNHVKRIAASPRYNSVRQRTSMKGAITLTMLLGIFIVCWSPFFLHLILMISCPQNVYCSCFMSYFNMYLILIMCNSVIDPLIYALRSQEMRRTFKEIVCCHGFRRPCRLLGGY
Melanocortin receptor 5 (Mus musculus), sequence (P41149 whole entry): as above
T1 sequence (P56450 whole entry): as the sequence (P56450 whole entry) above
T2 sequence (P33033 whole entry): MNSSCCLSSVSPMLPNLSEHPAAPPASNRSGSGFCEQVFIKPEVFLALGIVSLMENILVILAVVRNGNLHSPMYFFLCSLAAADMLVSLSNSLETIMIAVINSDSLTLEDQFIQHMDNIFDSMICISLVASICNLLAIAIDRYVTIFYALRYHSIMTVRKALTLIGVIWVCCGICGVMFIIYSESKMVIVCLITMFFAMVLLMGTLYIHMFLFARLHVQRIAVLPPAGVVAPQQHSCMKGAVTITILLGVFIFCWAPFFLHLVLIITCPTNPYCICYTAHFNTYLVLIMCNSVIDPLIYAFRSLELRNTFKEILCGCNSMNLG
Melanocortin receptor 3 (Mus musculus), sequence (P33033 whole entry): as above
Melanocortin receptor 3 (Homo sapiens), sequence (P41968 whole entry): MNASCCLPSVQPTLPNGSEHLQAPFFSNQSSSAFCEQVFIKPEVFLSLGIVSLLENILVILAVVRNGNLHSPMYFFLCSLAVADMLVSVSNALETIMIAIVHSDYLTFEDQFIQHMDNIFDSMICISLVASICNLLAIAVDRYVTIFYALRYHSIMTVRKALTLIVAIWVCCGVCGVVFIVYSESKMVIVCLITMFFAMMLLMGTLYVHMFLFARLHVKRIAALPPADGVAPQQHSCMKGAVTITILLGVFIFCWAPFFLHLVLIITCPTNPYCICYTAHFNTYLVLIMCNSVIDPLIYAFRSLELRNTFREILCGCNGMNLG
Melanocortin receptor 4 (Homo sapiens), sequence (P32245 whole entry): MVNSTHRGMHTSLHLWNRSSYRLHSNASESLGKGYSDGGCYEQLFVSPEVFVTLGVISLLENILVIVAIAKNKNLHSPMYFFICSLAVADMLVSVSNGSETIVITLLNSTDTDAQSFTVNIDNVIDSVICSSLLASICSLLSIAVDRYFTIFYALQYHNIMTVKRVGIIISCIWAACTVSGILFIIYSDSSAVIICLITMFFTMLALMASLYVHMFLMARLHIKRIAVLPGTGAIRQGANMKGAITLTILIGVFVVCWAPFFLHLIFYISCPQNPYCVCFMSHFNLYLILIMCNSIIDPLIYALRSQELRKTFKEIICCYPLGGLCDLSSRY

Structure (SMILES)	Kb (Melanocortin receptor 4 [2]) [nM]	EC50 (Melanocortin receptor 4 [4]) [nM]	Kb (Melanocortin receptor 3 [5]) [nM]	EC50 (Melanocortin receptor 5) [nM]	EC50 [6] [nM]	EC50 (Melanocortin receptor 3 [9]) [nM]	Activity ([10]; filed as agonist) [%]	Activity [11] [%]	also measured
CC(=O)N[C@H](Cc1ccc(I)cc1)C(=O)N[C@@H](CCCNC(=N)N)C(=O)N[C@@H](Cc1c[nH]c2ccccc12)C(=O)N[C@@H](CCCNC(=N)N)C(N)=O (Ac-[dPhe(4-I)]RWR-NH2)	2	> 100000	39.8	> 100000	7900				Activity [1]: 25%; Ki (Melanocortin receptor 4 [2]): 2 nM; Activity ([3]; filed as partial agonist): 50%; Ki (Melanocortin receptor 3 [5]): 40 nM
CC(=O)N[C@@H](Cc1ccc2ccccc2c1)C(=O)N[C@@H](CCCNC(=N)N)C(=O)N[C@@H](Cc1ccc2ccccc2c1)C(N)=O									Activity [7]: 1120 nM; Activity [8]: 11.6 nM
CC(=O)N[C@H](Cc1ccc(I)cc1)C(=O)N[C@@H](CCCNC(=N)N)C(=O)N[C@H](Cc1ccc2ccccc2c1)C(=O)N[C@H](CCCCN)C(N)=O (Ac-[dPhe(4-I)]R[d2Nal][dK]-NH2)									Activity [3]: 30%
CC(=O)N[C@H](Cc1ccc2ccccc2c1)C(=O)N[C@@H](CCCNC(=N)N)C(=O)N[C@H](Cc1ccc2ccccc2c1)C(=O)N[C@@H](CCCNC(=N)N)C(N)=O (Ac-[d2Nal]R[d2Nal]R-NH2)	5.01	> 100000	794	> 100000	1000	> 100000			Activity ([3]; filed as partial agonist): 60%
CC(=O)N[C@H](Cc1ccc2ccccc2c1)C(=O)N[C@H](Cc1ccc2ccccc2c1)C(=O)N[C@@H](Cc1ccc2ccccc2c1)C(=O)N[C@@H](CCCNC(=N)N)C(N)=O	> 3160	> 100000	> 3160			> 100000	40	55	
CC(=O)N[C@H](Cc1ccc(I)cc1)C(=O)N[C@H](Cc1ccc2ccccc2c1)C(=O)N[C@@H](Cc1ccc2ccccc2c1)C(=O)N[C@H](CCCCN)C(N)=O (Ac-[dPhe(4-I)][d2Nal][2Nal][dK]-NH2)	> 3160	> 100000	> 3160				50	40	Activity [1]: 20%; EC50 (Melanocortin receptor 4 [12]): > 100000 nM
CC(=O)N[C@H](Cc1ccc2ccccc2c1)C(=O)N[C@@H](CCCNC(=N)N)C(=O)N[C@H](Cc1ccc2ccccc2c1)C(=O)N[C@H](Cc1ccc2ccccc2c1)C(N)=O (Ac-[d2Nal]R[d2Nal][d2Nal]-NH2)	501		2000		5000				Activity ([1]; filed as agonist): 50%; Activity [10]: 20%; Activity ([3]; filed as partial agonist): 85%; Activity ([13]; filed as agonist): 45%
CC(=O)N[C@H](Cc1ccc2ccccc2c1)C(=O)N[C@@H](CCCNC(=N)N)C(=O)N[C@@H](Cc1ccc2ccccc2c1)C(=O)N[C@H](Cc1ccc2ccccc2c1)C(N)=O (Ac-[d2Nal]R[2Nal][d2Nal]-NH2)	200		> 3160						Activity [1]: 30%; Activity [10]: 25%; Activity [13]: 30%
CC(=O)N[C@H](Cc1ccc2ccccc2c1)C(=O)N[C@H](Cc1ccc2ccccc2c1)C(=O)N[C@@H](Cc1c[nH]c2ccccc12)C(=O)N[C@@H](CCCNC(=N)N)C(N)=O (Ac-[d2Nal][d2Nal]WR-NH2)	> 3160		> 3160				45	45	Activity [1]: 35%; Activity ([13]; filed as agonist): 60%
CC(=O)N[C@@H](Cc1ccc(I)cc1)C(=O)N[C@@H](Cc1ccc2ccccc2c1)C(=O)N[C@@H](Cc1ccc(I)cc1)C(=O)N[C@@H](CCCNC(=N)N)C(N)=O (Ac-[Phe(4-I)][2Nal][Phe(4-I)]R-NH2)		> 100000		> 100000		> 100000		60	pA2 [14]: inactive; pA2 [15]: inactive
CC(=O)N[C@H](Cc1ccc2ccccc2c1)C(=O)N[C@@H](CCCNC(=N)N)C(=O)N[C@H](Cc1ccc2ccccc2c1)C(=O)N[C@H](CCCCN)C(N)=O (Ac-[d2Nal]R[d2Nal][dK]-NH2)	6.31	> 100000	1000	> 100000	6000	> 100000			Activity [3]: 30%
CC(=O)N[C@H](Cc1ccc(I)cc1)C(=O)N[C@@H](CCCNC(=N)N)C(=O)N[C@H](Cc1ccc(I)cc1)C(=O)N[C@H](Cc1ccc2ccccc2c1)C(N)=O (Ac-[dPhe(4-I)]R[dPhe(4-I)][d2Nal]-NH2)	251		501				65		Activity ([1]; filed as agonist): 40%; Ki (Melanocortin receptor 4 [2]): 250 nM; Activity ([13]; filed as agonist): 40%; Ki (Melanocortin receptor 3 [5]): 500 nM; EC50 [16]: 1100 nM
CC(=O)N[C@H](Cc1ccc(I)cc1)C(=O)N[C@@H](CCCNC(=N)N)C(=O)N[C@H](Cc1ccc2ccccc2c1)C(=O)N[C@H](Cc1ccc2ccccc2c1)C(N)=O (Ac-[dPhe(4-I)]R[d2Nal][d2Nal]-NH2)	200		794					80	Activity ([1]; filed as agonist): 45%; Activity [10]: 20%; Ki (Melanocortin receptor 4 [2]): 200 nM; Activity ([13]; filed as agonist): 45%; Ki (Melanocortin receptor 3 [5]): 790 nM
CC(=O)N[C@H](Cc1ccc2ccccc2c1)C(=O)N[C@@H](CCCNC(=N)N)C(=O)N[C@@H](Cc1ccc2ccccc2c1)C(=O)N[C@H](CCCCN)C(N)=O (Ac-[d2Nal]R[2Nal][dK]-NH2)	15.8	> 100000	631	> 100000	3300	> 100000			Activity ([3]; filed as partial agonist): 50%
CC(=O)N[C@H](Cc1ccc2ccccc2c1)C(=O)N[C@@H](CCCNC(=N)N)C(=O)N[C@H](Cc1ccc(I)cc1)C(=O)N[C@H](Cc1ccc2ccccc2c1)C(N)=O (Ac-[d2Nal]R[dPhe(4-I)][d2Nal]-NH2)							40		Activity [13]: 30%
